Assay results: ChEMBL document CHEMBL5584237, “Design, synthesis, biological evaluation, and in silico studies of novel pyridopyridine derivatives as anticancer candidates targeting FMS kinase” (Eur J Med Chem, 2024)
Activity calls are given as the source filed them. The calls are words filed in the database; no cut-off is given here.

Assays:
[1] = Selectivity index, ratio of IC50 for human WI-38 cells to IC50 for human RXF 393 cells
SK-MEL-28 = assay: Antiproliferative activity against human SK-MEL-28 cells assessed as cell growth inhibition; assay type: functional
[2] = Selectivity index, ratio of IC50 for human HS27 cells to IC50 for human A549 cells
MDA-MB-435 = assay: Antiproliferative activity against human MDA-MB-435 cells assessed as cell growth inhibition; assay type: functional
[3] = Selectivity index, ratio of IC50 for human WI-38 cells to IC50 for human CCRF-CEM cells; assay type: toxicity; conditions: WI-38 cells and CCRF-CEM cells, read-out: Ratio IC50
MDA-MB-468 = assay: Antiproliferative activity against human MDA-MB-468 cells assessed as cell growth inhibition; assay type: functional
[4] = Selectivity index, ratio of IC50 for human WI-38 cells to IC50 for human Hs-578T cells
786-0 = assay: Antiproliferative activity against human 786-0 cells assessed as cell growth inhibition; assay type: functional
[5] = Selectivity index, ratio of IC50 for human HS27 cells to IC50 for human SF-539 cells
[6] = Selectivity index, ratio of IC50 for human HS27 cells to IC50 for human HCT-15 cells
[7] = Selectivity index, ratio of IC50 for human HS27 cells to IC50 for human OVCAR-3 cells
SNB-75 = assay: Antiproliferative activity against human SNB-75 cells assessed as cell growth inhibition; assay type: functional
[8] = Selectivity index, ratio of IC50 for human HS27 cells to IC50 for human CAKI-1 cells
[9] = Selectivity index, ratio of IC50 for human WI-38 cells to IC50 for human DU-145 cells
Hep 3B2 [10] = assay: Induction of apoptosis in human Hep3B cells assessed as increase in cleaved PARP expression measured after 48 hrs by Western blot analysis; assay type: functional, cell-based
[11] = Selectivity index, ratio of IC50 for human WI-38 cells to IC50 for human CAKI-1 cells
[12] = Selectivity index, ratio of IC50 for human HS27 cells to IC50 for human PC-3 cells
NCI-H460 = assay: Antiproliferative activity against human NCI-H460 cells assessed as cell growth inhibition; assay type: functional
[13] = Selectivity index, ratio of IC50 for human HS27 cells to IC50 for human MDA-MB-468 cells
[14] = Selectivity index, ratio of IC50 for human HS27 cells to IC50 for human SK-MEL-28 cells
[15] = Selectivity index, ratio of IC50 for human WI-38 cells to IC50 for human SF-295 cells
[16] = Selectivity index, ratio of IC50 for human WI-38 cells to IC50 for human SF-539 cells
[17] = Selectivity index, ratio of IC50 for human WI-38 cells to IC50 for human SNB-75 cells
[18] = Selectivity index, ratio of IC50 for human HS27 cells to IC50 for human MDA-MB-231 cells
[19] = Selectivity index, ratio of IC50 for human WI-38 cells to IC50 for human MDA-MB-435 cells
[20] = Selectivity index, ratio of IC50 for human HS27 cells to IC50 for human M14 cells
PC-3 = assay: Antiproliferative activity against human PC-3 cells assessed as cell growth inhibition; assay type: functional
Hep 3B2 [21] = assay: Cell cycle arrest in human Hep3B cells assessed as downregulation of cyclin D1 expression at 0.5 x IC50 to IC50 measured after 48 hrs by Western blot analysis; assay type: functional, cell-based
in vitro = conditions: human, WI-38 cells and A549 cells
Description: Selectivity index, ratio of IC50 for human WI-38 cells to IC50 for human A549 cells

Hs-578T = assay: Antiproliferative activity against human Hs-578T cells assessed as cell growth inhibition; assay type: functional
Hep 3B2 [22] = assay: Cell cycle arrest in human Hep3B cells assessed as upregulation of cyclin B1 expression at 3.38 uM measured after 48 hrs by Western blot analysis; assay type: functional, cell-based
Hep 3B2 [23] = assay: cells; conditions: Homo sapiens, Hep3B, 48 h
[24] = Selectivity index, ratio of IC50 for human WI-38 cells to IC50 for human OVCAR-4 cells
[25] = Selectivity index, ratio of IC50 for human WI-38 cells to IC50 for human MDA-MB-231 cells; assay type: toxicity; conditions: WI-38 cells and MDA-MB-231 cells, read-out: Ratio IC50
[26] = Selectivity index, ratio of IC50 for human WI-38 cells to IC50 for human NCI-H460 cells; assay type: toxicity; conditions: WI-38 cells and NCI-H460 cells, read-out: Ratio IC50
A549 = assay: Antiproliferative activity against human A549 cells assessed as cell growth inhibition; assay type: functional
[27] = Selectivity index, ratio of IC50 for human HS27 cells to IC50 for human COLO 205 cells
Hep 3B2 [28] = assay: Cell cycle arrest in human Hep3B cells assessed as upregulation of cyclin B1 expression at 0.5 x IC50 to IC50 measured after 48 hrs by Western blot analysis; assay type: functional, cell-based
[29] = Selectivity index, ratio of IC50 for human WI-38 cells to IC50 for human SW-620 cells
[30] = Selectivity index, ratio of IC50 for human HS27 cells to IC50 for human SW-620 cells
SW-620 = assay: Antiproliferative activity against human SW-620 cells assessed as cell growth inhibition; assay type: functional
[31] = Selectivity index, ratio of IC50 for human HS27 cells to IC50 for human Hs-578T cells
[32] = Selectivity index, ratio of IC50 for human HS27 cells to IC50 for human MOLT-4 cells
[33] = Selectivity index, ratio of IC50 for human WI-38 cells to IC50 for human MCF7 cells; assay type: toxicity; conditions: WI-38 cells and MCF7 cells, read-out: Ratio IC50
[34] = Selectivity index, ratio of IC50 for human HS27 cells to IC50 for human K562 cells
[35] = Selectivity index, ratio of IC50 for human HS27 cells to IC50 for human 786-0 cells
SR = assay: Antiproliferative activity against human SR cells assessed as cell growth inhibition; assay type: functional
[36] = Selectivity index, ratio of IC50 for human WI-38 cells to IC50 for human SK-MEL-28 cells
[37] = Selectivity index, ratio of IC50 for human HS27 cells to IC50 for human HT-29 cells

For `CCN1CCN(c2ccc(NC(=O)Nc3ccc(-c4cc(C(=O)NC(C)C)c5ncccc5n4)cc3)cc2C(F)(F)F)CC1`, the “Ratio IC50” value [1] was 10.52, the GI50 (SK-MEL-28) was 0.75 µM and the TGI (SK-MEL-28) was 1.85 µM. For the same molecule, the “Ratio IC50” value [2] was 3.32, the GI50 (MDA-MB-435) was 0.65 µM and the TGI (MDA-MB-435) was 1.31 µM. For the same molecule, the selectivity ratio [3] was 15.4, the GI50 (MDA-MB-468) was 0.77 µM and the TGI (MDA-MB-468) was 1.85 µM. For the same molecule, the “Ratio IC50” value [4] was 10.06, the GI50 (786-0) was 0.5 µM and the TGI (786-0) was 1.03 µM. For the same molecule, the “Ratio IC50” value [5] was 4.52, the “Ratio IC50” value [6] was 9.77 and the “Ratio IC50” value [7] was 3.05. The GI50 (SNB-75) was 0.98 µM, the TGI (SNB-75) was 5.14 µM and the “Ratio IC50” value [8] was 5.45. The “Ratio IC50” value [9] was 21.6, the Activity (Hep 3B2 [10]) was “Dose-Dependent Effect” and the “Ratio IC50” value [11] was 10.52. The “Ratio IC50” value [12] was 11.2, the GI50 (NCI-H460) was 0.62 µM and the TGI (NCI-H460) was 1.18 µM. For the same molecule, the “Ratio IC50” value [13] was 5.22, the “Ratio IC50” value [14] was 4.47 and the “Ratio IC50” value [15] was 8.71. The “Ratio IC50” value [16] was 8.71, the “Ratio IC50” value [17] was 8.71 and the “Ratio IC50” value [18] was 5.22. For the same molecule, the “Ratio IC50” value [19] was 8.62, the “Ratio IC50” value [20] was 4.47 and the GI50 (PC-3) was 0.76 µM. The TGI (PC-3) was 2.1 µM, the Activity (Hep 3B2 [21]) was “inactive” and the selectivity ratio (in vitro) was 6.4. For the same molecule, the GI50 (Hs-578T) was 0.88 µM, the TGI (Hs-578T) was 3.45 µM and the Activity (Hep 3B2 [22]) was “Active”. For the same molecule, the IC50 (Hep 3B2 [23]) was 1.69 µM, the “Ratio IC50” value [24] was 5.89 and the selectivity ratio [25] was 10.1. The selectivity ratio [26] was 6.4, the TGI (A549) was 5.77 µM and the “Ratio IC50” value [27] was 9.77. For the same molecule, the Activity (Hep 3B2 [28]) was “inactive”, the “Ratio IC50” value [29] was 18.84 and the “Ratio IC50” value [30] was 9.77. For the same molecule, the GI50 (SW-620) was 0.64 µM, the TGI (SW-620) was 1.26 µM and the “Ratio IC50” value [31] was 5.22. For the same molecule, the “Ratio IC50” value [32] was 8, the selectivity ratio [33] was 10.1 and the “Ratio IC50” value [34] was 8. For the same molecule, the “Ratio IC50” value [35] was 5.45, the TGI (SR) was 12.1 µM and the “Ratio IC50” value [36] was 8.62. The “Ratio IC50” value [37] was 9.77.
